Entries after “also recorded” stand apart in the source; their conditions may differ. Read-outs that look alike come from different tables or passages of the source. Each block holds one compound with its values, some of them ahead of it.
How the values were obtained:
Ulva pertusa = system: Ulva pertusa; design: method as in doi:10.3989/scimar.04638.13A; settings: cited from earlier work
[1] = system: Roseobacter litoralis CECT 5395; assay: Biofilm-forming marine bacteria growth inhibition; format: cell-based; settings: for EC50: Roseobacter litoralis, CECT5395; for R. litoralis biofilm growth inhibition: screening at 15 μM, 24 h, vs negative control (Dunnett, p < 0.01)
Experimental: Five strains of marine biofilm-forming bacteria from the Spanish Type Culture Collection (CECT): Cobetia marina CECT 4278, Vibrio harveyi CECT 525, Halomonas aquamarina CECT 5000, Pseudoalteromonas atlantica CECT 570, and Roseobacter litoralis CECT 5395 were selected for antibacterial screening. The experimental procedure was performed according to the previously reported. Briefly, bacteria were inoculated and incubated for 24 h at 26 °C in marine broth (Difco) at an initial density of 0.1 (OD600) in 96-well flat-bottom microtiter plates and exposed to the test compounds at 15 μM. Bacterial growth inhibition in the presence of the compounds was determined in quadruplicate at 600 nm using a microplate reader (BioTek Synergy HT, Winooski, VT, USA). Negative and positive controls used were a solution of marine broth with 0.1% DMSO, and a solution of marine broth with penicillin–streptomycin–neomycin, respectively. Bacterial growth inhibition calculations were made based in the formula ((Mc–Mt)/Mc) × 100, where Mc is the mean of the four replicates from negative control, and Mt is the mean of four replicates from each of the tested compounds.
(§1) Data from anti-settlement, antibacterial, and anti-microalgal bioassay were analyzed by one-way analysis of variance (ANOVA), followed by a multi-comparisons Dunnett’s test against negative control. For all of the bioassays, the half-maximum response concentration (EC50) values for each compound, when applicable, were calculated using probit regression analysis. Significance was considered at p < 0.01, and 95% lower and upper confidence limits (95% LCL; UCL). The software IBM SPSS Statistics 26 (Armonk, New York, NY, USA) was used for statistical analysis.

Navicula sp. = assay: Biofilm-forming marine diatom growth inhibition; format: cell-based; settings: for EC50: dose-response
Experimental: The anti-microalgal activity of the most promising compounds was also evaluated against a benthic marine diatom, Navicula sp., purchased from the Spanish Collection of Algae (BEA), according to the previously reported. Briefly, diatom cells were inoculated in f/2 medium (Sigma) at an initial concentration of 2–4 × 10^6 cells·mL^−1 and grown in 96-well flat-bottom microtiter plates for 14 days in continuous light at 20 °C. […] Growth inhibition was calculated based in the formula ((Mc–Mt)/Mc) × 100, where Mc is the mean of the cell counts of the four replicates from negative control, and Mt is the mean of the cell counts of the four replicates from each of the tested compounds. Positive control with cycloheximide (3.55 μM) and negative control with f/2 medium 0.1% DMSO were included.
as §1

[2] = system: Mytilus galloprovincialis plantigrade larvae; assay: Mussel larvae anti-settlement bioassay; format: in vivo; settings: for EC50: Mytilus galloprovincialis, dose-response 3.125-200 μM; for percentage of settlement: screening at 50 μM, 15 h
Experimental: (§2) Mussel (Mytilus galloprovincialis) plantigrades were collected in juvenile aggregates during low neap tides at Memória beach, Matosinhos, Portugal (41°13′59″ N; 8°43′28″ W). In the laboratory, mussel plantigrade larvae (0.5–2 mm) were isolated in a binocular magnifier (Olympus SZX2-ILLT, Tokyo, Japan) to a petri dish with filtered seawater, and those with functional foot and competent exploring behavior were selected to the bioassays. Compounds were screened at 50 µM in 24-well microplates with 4-well replicates per condition and 5 larvae per well, for 15 h, in the darkness at 18 ± 1 °C, according to the previously reported. All compounds that caused more than 60% of settlement inhibition (≤40% of settlement) in the screening bioassay were considered active and selected for the determination of the semi-maximum response concentration that inhibited 50% of the larval settlement (EC50), at compounds concentrations of 3.125, 6.25, 12.5, 25, 50, 100, and 200 μM.
as §1

[3] = Mussel larvae anti-settlement bioassay; format: in vivo; settings: Mytilus galloprovincialis (mussel) plantigrade larvae, in vivo; mussel plantigrade larvae; highest concentration tested 200 μM; read-out: LC50 (µM), median lethal dose
Experimental: as §2, §1

Artemia salina nauplii [4] = assay: Artemia salina nauplii lethality ecotoxicity bioassay; format: in vivo; settings: 25 and 50 μM, 48 h exposure
Experimental: The brine shrimp (Artemia salina) nauplii lethality test was used to determine the ecotoxicity of 6a, 7a, and 9a to non-target organisms. Briefly, Artemia salina eggs were allowed to hatch in seawater for 48 h at 25 °C. Bioassays were performed in 96-well microplates with 15–20 nauplii per well and 200 μL of the compounds test solution. Test solutions were prepared in filtered seawater at concentrations of 25 and 50 μM. All tests included K2Cr2O7 as positive control and DMSO as a negative control. Bioassays run in the dark at 25 °C, and the percentage of mortality was determined after 48 h of exposure.

Artemia salina nauplii [5] = system: Artemia salina nauplii; design: method as in PMID 31669574; settings: 25 and 50 μM; cited from earlier work
[6] = dose-response, read-out: EC50 (µM), R. litoralis growth
[7] = dose-response, read-out: EC50 (µg·mL^−1), R. litoralis growth
[8] = 95% CI in brackets, read-out: EC50 (µM), concentration that inhibited 50% of larval settlement

Structure (SMILES): COc1cc(C(C)=O)cc(OC)c1OCc1cn(-c2ccc(F)cc2)nn1 [Compound 4a, 1-(4-((1-(4-Fluorophenyl)-1H-1,2,3-triazol-4-yl)methoxy)-3,5-dimethoxyphenyl)ethan-1-one]
melting point: 160 to 160.5 °C

Structure (SMILES): CC(=O)c1ccc(O)cc1O [2,4-dihydroxyacetophenone]
inhibition of spore attachment (Ulva pertusa): significantly inhibit

Structure (SMILES): COc1cc(C(C)=O)cc(OC)c1OCc1cn(CCCO)nn1 [Compound 7a, 1-(4-((1-(3-Hydroxypropyl)-1H-1,2,3-triazol-4-yl)methoxy)-3,5-dimethoxyphenyl)ethan-1-one]
Navicula sp. growth inhibition screening (Navicula sp.; 15 µM (Figure 5 legend), 14 days): showed inhibitory activity | EC50 (Navicula sp.; read-out: EC50 (µM), Navicula sp. growth): 26.7 µM | EC50 (Navicula sp.; read-out: EC50 (µg·mL^−1), Navicula sp. growth): 8.96 µg/mL | EC50 [2, 8]: 40.1 µM | EC50 ([2]; read-out: EC50 (µg·mL^−1), larval settlement): < 25 µg/mL | percentage of settlement [2]: ≤ 40% | LC50 at 15 h [3]: > 200 µM | mortality rate of Artemia salina nauplii (Artemia salina nauplii [4]): not significantly different from negative control; also recorded: non-toxic

Structure (SMILES): COc1cc(C(C)=O)cc(OC)c1OCc1cn(Cc2ccc(C#N)cc2)nn1 [Compound 3a, 4-((4-((4-Acetyl-2,6-dimethoxyphenoxy)methyl)-1H-1,2,3-triazol-1-yl)methyl)benzonitrile]
melting point: 149.5 to 149.8 °C

Structure (SMILES): COc1ccc(-n2cc(COc3c(OC)cc(C(C)=O)cc3OC)nn2)cc1 [Compound 8a, 1-(3,5-Dimethoxy-4-((1-(4-methoxyphenyl)-1H-1,2,3-triazol-4-yl)methoxy)phenyl)ethan-1-one]
melting point: 99.5 to 102.3 °C

Structure (SMILES): COc1cc(C(C)=O)cc(OC)c1OCc1cn([C@H]2O[C@@H](CO)[C@H](O)[C@@H](O)[C@@H]2NC(C)=O)nn1 [Compound 9a, N-((2S,3S,4S,5R,6S)-2-(4-((4-Acetyl-2,6-dimethoxyphenoxy)methyl)-1H-1,2,3-triazol-1-yl)-4,5-dihydroxy-6-(hydroxymethyl)tetrahydro-2H-pyran-3-yl)acetamide]
EC50 [2, 8]: 20.7 µM | percentage of settlement [2]: ≤ 40% | LC50 at 15 h [3]: > 200 µM | mortality rate of Artemia salina nauplii (Artemia salina nauplii [4]): not significantly different from negative control; also recorded: non-toxic

Structure (SMILES): N#Cc1c(-c2ccc(Cl)cc2)[nH]c(C(F)(F)F)c1Br [ECONEA®]
lethality to Artemia salina (Artemia salina nauplii [5]): 100%

Structure (SMILES): COc1cc(C(C)=O)cc(OC)c1OCc1cn(-c2ccc(Br)cc2)nn1 [Compound 5a, 1-(4-((1-(4-Bromophenyl)-1H-1,2,3-triazol-4-yl)methoxy)-3,5-dimethoxyphenyl)ethan-1-one]
melting point: 159.1 to 160.4 °C

Structure (SMILES): COc1cc(C(C)=O)cc(OC)c1OCc1cn(-c2ccc(Cl)cc2)nn1 [Compound 6a, 1-(4-((1-(4-Chlorophenyl)-1H-1,2,3-triazol-4-yl)methoxy)-3,5-dimethoxyphenyl)ethan-1-one]
EC50 [2, 8]: 28.9 µM | percentage of settlement [2]: ≤ 40% | LC50 at 15 h [3]: > 200 µM

Structure (SMILES): CC(=O)c1ccc(OCc2cn(CCCO)nn2)cc1O [Compound 7b, 1-(2-Hydroxy-4-((1-(3-hydroxypropyl)-1H-1,2,3-triazol-4-yl)methoxy)phenyl)ethan-1-one]
EC50 (µM), R. litoralis growth ([1]; dose-response): not possible to estimate | R. litoralis biofilm growth inhibition [1]: significantly inhibit | melting point: 69.2 to 70.5 °C

More lines, main results first:

melting point: 183.3 to 184.8 °C
Structure (SMILES): CC(=O)c1ccc(OCc2cn(-c3ccc(Br)cc3)nn2)cc1O [Compound 5b, 1-(4-((1-(4-Bromophenyl)-1H-1,2,3-triazol-4-yl)methoxy)-2-hydroxyphenyl)ethan-1-one]

melting point: 157 to 159.1 °C
Structure (SMILES): CC(=O)c1ccc(OCc2cn(-c3ccc(Cl)cc3)nn2)cc1O [Compound 6b, 1-(4-((1-(4-Chlorophenyl)-1H-1,2,3-triazol-4-yl)methoxy)-2-hydroxyphenyl)ethan-1-one]

EC50 [1, 6]: 49.8 µM | EC50 [1, 7]: 17.4 µg/mL | melting point: 153.8 to 155.6 °C
Structure (SMILES): CC(=O)c1ccc(OCc2cn(Cc3ccc(C#N)cc3)nn2)cc1O [Compound 3b, 4-((4-((4-Acetyl-3-hydroxyphenoxy)methyl)-1H-1,2,3-triazol-1-yl)methyl)benzonitrile]
R. litoralis biofilm growth inhibition [1]: significantly inhibit

EC50 [1, 6]: 105 µM | EC50 [1, 7]: 34.4 µg/mL | melting point: 145.9 to 148 °C
Structure (SMILES): CC(=O)c1ccc(OCc2cn(-c3ccc(F)cc3)nn2)cc1O [Compound 4b, 1-(4-((1-(4-Fluorophenyl)-1H-1,2,3-triazol-4-yl)methoxy)-2-hydroxyphenyl)ethan-1-one]
R. litoralis biofilm growth inhibition [1]: significantly inhibit

melting point: 115.1 to 117.5 °C
Structure (SMILES): COc1ccc(-n2cc(COc3ccc(C(C)=O)c(O)c3)nn2)cc1 [Compound 8b, 1-(2-Hydroxy-4-((1-(4-methoxyphenyl)-1H-1,2,3-triazol-4-yl)methoxy)phenyl)ethan-1-one]
